Data: patent publication US8598344B2, “CDKI pathway inhibitors and uses thereof” (Senex Biotechnology, priority 2009, dated 2013)
pEC50, pIC50: −log10 of the molar value.

Experiments:
[1] = tested on: DLD1 cells; assay: Colon carcinoma cell proliferation, FACS count of live cells; format: cell-based, human; conditions: 72 hrs; read-out: IC50, growth inhibition
Protocol: (§1) Inhibition of β-catenin, which is positively regulated by CDK8, was reported to inhibit proliferation of some colon carcinoma cell lines (Firestein et al., 2008). We have therefore determined the ability of compound 1 to inhibit the proliferation of several colon carcinoma cell lines, including human DLD1, HCT116, SW480 and murine C26. This analysis waqs carried out by incubating cells for 72 hrs in the presence of 0, 2.5, 5 or 10 μM compound 1, followed by FACS measurement of the number of live cells, as defined by the lack of uptake of membrane-impermeable dye propidium iodide.

[2] = tested on: HCT116; assay: as above; format: cell-based, human; conditions: 72 hrs, 2.5, 5 or 10 μM
Protocol: as §1

[3] = tested on: SW480; assay: as above; format: cell-based, human; conditions: 72 hrs, 2.5, 5 or 10 μM
Protocol: as §1

[4] = tested on: HIV-1; conditions: read-out: EC50, decrease in fraction of HIV-infected (p24-positive) cells; day 5
Protocol: HIV replication was assayed in a cell-to-cell model of HIV-1 transmission using chronically infected H9IIIB as donor cells cocultivated with uninfected CEM-ss leukemia cell line as recipient cells. 1 ml of RPMI1640 medium (+10% Fetal Bovine Serum+Penicillin/Streptomycin+glutamine) containing 10^4 H9IIIB cells was mixed with 1 ml of the same medium containing 10^6 CEM-ss cells. […] The suspended cells were placed into a 25 cm^2 flask and incubated at 37° C., 5% CO2. On day 3, the cells were counted with a light microscope and an hemocytometer after trypan blue staining, which was used to determine the fraction of viable (trypan blue negative) cells. On day 5, the fraction of HIV-infected cells was determined using the K57-FITC conjugated monoclonal antibody to the HIV p24 antigen. For this measurement, the cells in each flask were mixed, 1 ml of cell culture was removed from each flask and placed into round bottom centrifuge tubes. The cells were separated from the medium by centrifugation at 1500 RPM for 5 minutes, the supernatants were aspirated and discarded and the cell pellets suspended in a fixative. […] The final pellets were suspended in 0.5 ml of PBS and the percentage of HIV p24-positive cells was determined by FACS analysis.

[5] = tested on: HUVECs; assay: HUVEC proliferation, 3-day MTT assay; format: cell-based, human
[6] = biological target: CDK7 (Homo sapiens, UniProt P50613); assay: KinomeScan competition binding assay; parameters: purchased KinomeScan, a division of Ambit Biosciences; conditions: 10 μM compound
Source text: This similarity led us to test SNX14 for the ability to inhibit 285 kinases, using the services of KinaseProfiler of Millipore Corporation (285 kinases). […] The KINOMEscan assay has been described in detail in Fabian et al., Nat. Biotechnol. 23: 329 (2005) and Karaman et al., Nat. Biotechnol. 26: 127 (2008).
The KinomeScan assay is based on a competition binding assay that quantitatively measures the ability of a compound to compete with an immobilized, ATP site directed ligand. The assay is performed by combining three components: DNA-tagged kinase; immobilized ligand; and a test compound. The ability of the test compound to compete with the immobilized ligand is measured via quantitative PCR of the DNA tag. […] The CDKs tested by Millipore for inhibition with SNX14 included CDK1, CDK2, CDK3, CDK5, CDK7 and CDK9; none of these were inhibited to less than 49 percent of control (POC) activity. The CDKs tested by KinomeScan for the effect of Compound 1 included CDK2, CDK3, CDK4, CDK5, CDK7, CDK8, CDK9 and CDK19; aside from CDK8 and CDK19, the strongest inhibited CDK was CDK7 (33% POC binding). […] We have also determined the binding constant (Kd) for SNX14, compound 1, compound 20, compound 26, compound 43 and compound 14 in kinase assays for CDK8 and CDK19 (Table 1).

CDK7, sequence (P50613 whole entry): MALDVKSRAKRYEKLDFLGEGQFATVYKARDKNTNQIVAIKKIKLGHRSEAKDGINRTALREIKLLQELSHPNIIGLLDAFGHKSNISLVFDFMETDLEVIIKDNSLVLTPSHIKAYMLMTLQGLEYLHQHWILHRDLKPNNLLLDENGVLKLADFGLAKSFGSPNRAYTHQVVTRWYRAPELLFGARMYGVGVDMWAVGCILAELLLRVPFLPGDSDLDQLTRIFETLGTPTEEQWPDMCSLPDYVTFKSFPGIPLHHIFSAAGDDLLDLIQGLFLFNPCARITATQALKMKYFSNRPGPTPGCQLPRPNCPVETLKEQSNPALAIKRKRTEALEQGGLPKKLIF

Compound: N#Cc1ccc2ncnc(NCCc3ccccc3)c2c1 [compound 1]
- pIC50 [1]: ~5.30
- growth of colon carcinoma cell line [2]: inhibited the growth
- growth of colon carcinoma cell line [3]: inhibited the growth
- pEC50 [4]: 6.24
- effect on HUVEC cell number relative to untreated control ([5]; 0.625 or 1.25 μM): little or no effect
- pIC50 ([5]; 3-day MTT): 4.98
- POC binding, CDK7 [6]: 33 % POC
